The source of these data is US9308176B2, “Less abusable pharmaceutical preparations” (Supernus Pharmaceuticals, Inc, priority 2004, dated 2016).

This data set in a line: aqueous solubility at different pH. The source says:
Moreover, alkaline agents, such as sodium bicarbonate, calcium carbonate, meglumine, and calcium phosphate, can be used to convert salt forms of amine drugs to free base. Generally, free bases have much lower solubility than their salts.

What is called solubility is how much of the substance goes into solution per volume. In the case of `COc1ccc2c3c1O[C@H]1C(=O)CC[C@@]4(O)[C@@H](C2)N(C)CC[C@]314.Cl` [oxycodone hydrochloride], the solubility runs as follows: (pH 1.5, simulated gastric fluid) 182 mg/mL; (pH 7.4, aqueous buffer) 6.1 mg/mL.
